# Values of other authors in patent US12478679B2, “Pharmaceutical carrier for active substances and a pharmaceutical composition containing said carrier” (BIOTTS S A, priority 2019, dated 2025).
# Where two headings read alike, the source gives them in different places.
# Key:
# [1] = mice
# [2] = rats
structure (smiles),measurement,setting,value
COc1cc(/C=C/C(=O)CC(=O)/C=C/c2ccc(O)c(OC)c2)ccc1O [curcumin],"ED50, average effective dose in the carrageenan test",[1]; first series,100.2 mg/kg
same,ED50,[1]; series of turmeric extracts and curcumin alone,8.7 mg/kg
same,"ED50, average effective dose in the carrageenan test",[2],48 mg/kg
